Assay results as given in ChEMBL document CHEMBL3885881, “DrugMatrix”.

Species: Rattus norvegicus
Experiment: DrugMatrix - Regimen: Daily Repeat
Type: toxicity, organism-based, Sprague-Dawley
Parameters: regimen Daily Repeat, gender Male, age 6-8 weeks
Settings: in vivo, po, route oral GAVAGE, […]; for ABSOLUTE BASOPHIL / ABSOLUTE EOSINOPHIL / ABSOLUTE LYMPHOCYTE / ABSOLUTE MONOCYTE / ABSOLUTE SEGMENTED NEUTROPHIL / BASOPHIL / EOSINOPHIL / HEMATOCRIT / HEMOGLOBIN / LEUKOCYTE COUNT / LYMPHOCYTE / MEAN CORPUSCULAR HEMOGLOBIN / MEAN CORPUSCULAR HEMOGLOBIN CONCENTRATION / MEAN CORPUSCULAR VOLUME / MONOCYTE / NEUTROPHIL / NUCLEATED RED BLOOD CELLS / PLATELET COUNT: tissue Blood; for ALANINE AMINOTRANSFERASE / ALBUMIN / ALKALINE PHOSPHATASE / ASPARTATE AMINOTRANSFERASE / BLOOD UREA NITROGEN / CARBON DIOXIDE / CHLORIDE / CHOLESTEROL / CREATINE PHOSPHOKINASE / CREATININE / GLUCOSE / LACTATE DEHYDROGENASE / LIPASE / PHOSPHORUS / POTASSIUM / SODIUM / TOTAL BILIRUBIN / TOTAL PROTEIN / URIC ACID: tissue Plasma
[1] = 1 mg/kg, 72 h, dose level Low, time 3 day
[2] = 1 mg/kg, 120 h, dose level Low, time 5 day
[3] = 21 mg/kg, 72 h, dose level High, time 3 day
[4] = 21 mg/kg, 120 h, dose level High, time 5 day

Compound: O=C(CCCN1CCC(O)(c2ccc(Cl)cc2)CC1)c1ccc(F)cc1 [HALOPERIDOL]
- ABSOLUTE BASOPHIL [1]: 0 CELLS/uL
- ABSOLUTE EOSINOPHIL [1]: 94.33 CELLS/uL
- ABSOLUTE LYMPHOCYTE [1]: 11131.67 CELLS/uL
- ABSOLUTE MONOCYTE [1]: 120.67 CELLS/uL
- ABSOLUTE SEGMENTED NEUTROPHIL [1]: 1053.33 CELLS/uL
- BASOPHIL [1]: 0%
- EOSINOPHIL [1]: 0.67%
- HEMATOCRIT [1]: 33.6%
- HEMOGLOBIN [1]: 13.7 G/DL
- LEUKOCYTE COUNT [1]: 12.4 x10E3/uL
- LYMPHOCYTE [1]: 88.33%
- MEAN CORPUSCULAR HEMOGLOBIN [1]: 25.53 pg
- MEAN CORPUSCULAR HEMOGLOBIN CONCENTRATION [1]: 40.8 G/DL
- MEAN CORPUSCULAR VOLUME [1]: 62.6 fL
- MONOCYTE [1]: 1%
- NEUTROPHIL [1]: 10%
- NUCLEATED RED BLOOD CELLS [1]: 0 /100WBC
- PLATELET COUNT [1]: 969 x10E3/uL
- ALANINE AMINOTRANSFERASE [1]: 88.67 u/L
- ALBUMIN [1]: 3.97 G/DL
- ALKALINE PHOSPHATASE [1]: 450 u/L
- ASPARTATE AMINOTRANSFERASE [1]: 97.33 u/L
- BLOOD UREA NITROGEN [1]: 12.33 mg/dL
- CARBON DIOXIDE [1]: 31.67 mmol/L
- CHLORIDE [1]: 97 MEQ/L
- CHOLESTEROL [1]: 75.67 mg/dL
- CREATINE PHOSPHOKINASE [1]: 318.67 u/L
- CREATININE [1]: 0.13 mg/dL
- GLUCOSE [1]: 163.67 mg/dL
- LACTATE DEHYDROGENASE [1]: 170 u/L
- LIPASE [1]: 15 u/L
- PHOSPHORUS [1]: 11.33 mg/dL
- POTASSIUM [1]: 6.08 MEQ/L
- SODIUM [1]: 142.45 MEQ/L
- TOTAL BILIRUBIN [1]: 0.17 mg/dL
- TOTAL PROTEIN [1]: 5.67 G/DL
- URIC ACID [1]: 1 mg/dL
- ABSOLUTE BASOPHIL [2]: 0 CELLS/uL
- ABSOLUTE EOSINOPHIL [2]: 0 CELLS/uL
- ABSOLUTE LYMPHOCYTE [2]: 12900 CELLS/uL
- ABSOLUTE MONOCYTE [2]: 131.67 CELLS/uL
- ABSOLUTE SEGMENTED NEUTROPHIL [2]: 1068.33 CELLS/uL
- BASOPHIL [2]: 0%
- EOSINOPHIL [2]: 0%
- HEMATOCRIT [2]: 34.63%
- HEMOGLOBIN [2]: 14.03 G/DL
- LEUKOCYTE COUNT [2]: 14.1 x10E3/uL
- LYMPHOCYTE [2]: 91.67%
- MEAN CORPUSCULAR HEMOGLOBIN [2]: 25.73 pg
- MEAN CORPUSCULAR HEMOGLOBIN CONCENTRATION [2]: 40.5 G/DL
- MEAN CORPUSCULAR VOLUME [2]: 63.57 fL
- MONOCYTE [2]: 1%
- NEUTROPHIL [2]: 7.33%
- NUCLEATED RED BLOOD CELLS [2]: 0 /100WBC
- PLATELET COUNT [2]: 1083 x10E3/uL
- ALANINE AMINOTRANSFERASE [2]: 51 u/L
- ALBUMIN [2]: 4.17 G/DL
- ALKALINE PHOSPHATASE [2]: 383.33 u/L
- ASPARTATE AMINOTRANSFERASE [2]: 81.33 u/L
- BLOOD UREA NITROGEN [2]: 16.33 mg/dL
- CARBON DIOXIDE [2]: 25.67 mmol/L
- CHLORIDE [2]: 102 MEQ/L
- CHOLESTEROL [2]: 77.33 mg/dL
- CREATINE PHOSPHOKINASE [2]: 323.67 u/L
- CREATININE [2]: 0.18 mg/dL
- GLUCOSE [2]: 144 mg/dL
- LACTATE DEHYDROGENASE [2]: 223.33 u/L
- LIPASE [2]: 11.33 u/L
- PHOSPHORUS [2]: 10.8 mg/dL
- POTASSIUM [2]: 6.15 MEQ/L
- SODIUM [2]: 143.13 MEQ/L
- TOTAL BILIRUBIN [2]: 0.17 mg/dL
- TOTAL PROTEIN [2]: 5.77 G/DL
- URIC ACID [2]: 1.17 mg/dL
- ABSOLUTE BASOPHIL [3]: 0 CELLS/uL
- ABSOLUTE EOSINOPHIL [3]: 71.67 CELLS/uL
- ABSOLUTE LYMPHOCYTE [3]: 13503.67 CELLS/uL
- ABSOLUTE MONOCYTE [3]: 143.33 CELLS/uL
- ABSOLUTE SEGMENTED NEUTROPHIL [3]: 1014.67 CELLS/uL
- BASOPHIL [3]: 0%
- EOSINOPHIL [3]: 0.33%
- HEMATOCRIT [3]: 37.23%
- HEMOGLOBIN [3]: 14.77 G/DL
- LEUKOCYTE COUNT [3]: 14.73 x10E3/uL
- LYMPHOCYTE [3]: 92.33%
- MEAN CORPUSCULAR HEMOGLOBIN [3]: 23.97 pg
- MEAN CORPUSCULAR HEMOGLOBIN CONCENTRATION [3]: 39.67 G/DL
- MEAN CORPUSCULAR VOLUME [3]: 60.4 fL
- MONOCYTE [3]: 0.67%
- NEUTROPHIL [3]: 6.67%
- NUCLEATED RED BLOOD CELLS [3]: 0 /100WBC
- PLATELET COUNT [3]: 1422.33 x10E3/uL
- ALANINE AMINOTRANSFERASE [3]: 42.33 u/L
- ALBUMIN [3]: 4.2 G/DL
- ALKALINE PHOSPHATASE [3]: 358.33 u/L
- ASPARTATE AMINOTRANSFERASE [3]: 92.33 u/L
- BLOOD UREA NITROGEN [3]: 16.33 mg/dL
- CARBON DIOXIDE [3]: 22.67 mmol/L
- CHLORIDE [3]: 103.67 MEQ/L
- CHOLESTEROL [3]: 58 mg/dL
- CREATINE PHOSPHOKINASE [3]: 803 u/L
- CREATININE [3]: 0.18 mg/dL
- GLUCOSE [3]: 168 mg/dL
- LACTATE DEHYDROGENASE [3]: 310 u/L
- LIPASE [3]: 11.33 u/L
- PHOSPHORUS [3]: 12.4 mg/dL
- POTASSIUM [3]: 6.38 MEQ/L
- SODIUM [3]: 143.4 MEQ/L
- TOTAL BILIRUBIN [3]: 0.13 mg/dL
- TOTAL PROTEIN [3]: 5.9 G/DL
- URIC ACID [3]: 2.07 mg/dL
- ABSOLUTE BASOPHIL [4]: 0 CELLS/uL
- ABSOLUTE EOSINOPHIL [4]: 46.33 CELLS/uL
- ABSOLUTE LYMPHOCYTE [4]: 13529.67 CELLS/uL
- ABSOLUTE MONOCYTE [4]: 94 CELLS/uL
- ABSOLUTE SEGMENTED NEUTROPHIL [4]: 1530 CELLS/uL
- BASOPHIL [4]: 0%
- EOSINOPHIL [4]: 0.33%
- HEMATOCRIT [4]: 35.97%
- HEMOGLOBIN [4]: 14.07 G/DL
- LEUKOCYTE COUNT [4]: 15.2 x10E3/uL
- LYMPHOCYTE [4]: 88.67%
- MEAN CORPUSCULAR HEMOGLOBIN [4]: 23.57 pg
- MEAN CORPUSCULAR HEMOGLOBIN CONCENTRATION [4]: 39.13 G/DL
- MEAN CORPUSCULAR VOLUME [4]: 60.3 fL
- MONOCYTE [4]: 0.67%
- NEUTROPHIL [4]: 10.33%
- NUCLEATED RED BLOOD CELLS [4]: 0.33 /100WBC
- PLATELET COUNT [4]: 1209.33 x10E3/uL
- ALANINE AMINOTRANSFERASE [4]: 53 u/L
- ALBUMIN [4]: 4.13 G/DL
- ALKALINE PHOSPHATASE [4]: 352.33 u/L
- ASPARTATE AMINOTRANSFERASE [4]: 80.33 u/L
- BLOOD UREA NITROGEN [4]: 17.33 mg/dL
- CARBON DIOXIDE [4]: 23 mmol/L
- CHLORIDE [4]: 103.33 MEQ/L
- CHOLESTEROL [4]: 69 mg/dL
- CREATINE PHOSPHOKINASE [4]: 224.67 u/L
- CREATININE [4]: 0.18 mg/dL
- GLUCOSE [4]: 201.67 mg/dL
- LACTATE DEHYDROGENASE [4]: 239 u/L
- LIPASE [4]: 11.33 u/L
- PHOSPHORUS [4]: 11.33 mg/dL
- POTASSIUM [4]: 6.19 MEQ/L
- SODIUM [4]: 143.37 MEQ/L
- TOTAL BILIRUBIN [4]: 0.2 mg/dL
- TOTAL PROTEIN [4]: 5.63 G/DL
- URIC ACID [4]: 1.4 mg/dL
